The source of these data is patent US9687479B2, “Multisubstituted aromatic compounds as serine protease inhibitors” (VERSEON CORPORATION, priority 2013, dated 2017).

Broadly, the Papp is a coefficient for how fast a substance crosses the barrier. Read a low Papp as slow passage. One may read the IC50 as the concentration needed to halve the response being measured. In general, AUC refers to concentration integrated over time. Read a low AUC as less exposure. What is called half-life is the time needed for the level to fall by half in the phase considered. Low values mean rapid decline, high ones slow decline. A word on the bioavailability: it is dose-corrected exposure relative to a reference, in per cent. Read a low bioavailability as little systemic uptake.

The nature of data set [1]: Trans-corneal permeability in vitro across excised rabbit corneas (Franz chamber). In kind it is in vitro ADME. The conditions noted are these: excised rabbit cornea, compound in PBS, 37° C., four hours. Here is the method: In this example, trans-corneal permeability of compounds are measured in-vitro across excised rabbit corneas. Excised rabbit cornea are acquired from Pel-Freez and delivered in DMEM culture media on ice overnight. The test apparatus is a curved 9 mm Franz chamber (Permegear) suitable for rabbit eyes. Test compound is prepared in PBS buffer. The compound solution is added to the donor chamber of the Franz chamber and the entire apparatus placed in an incubator at 37° C. for four hours. During incubation and at every subsequent hour, a sample is removed from the receiver chamber and analyzed by HPLC (Shimadzu Prominence) using a C18 column (Phenomenex 00E-4605-E0) in reverse phase with acetonitrile in water. The apparent permeability coefficient Papp (cm/s) is calculated as
where dM/dt is the flux (nmol/s) across the cell layers or cornea, A is the exposed surface area (cm^2) of the insert membrane of rabbit cornea, and C0 is the initial drug concentration (μM) in the donor compartment.

Data set [2] concerns the target Recombinant human tissue kallikrein (KLK1) (Homo sapiens (Human), UniProt P06870). Briefly: KLK1 kallikrein activity inhibition assay (Pro-Phe-Arg-AMC substrate). In kind it is biochemical. Here is the method: The KLK1 kallikrein activity reported herein (e.g., Tables B and C) was obtained as follows. Recombinant human tissue kallikrein (KLK1) was obtained from R&D Systems. […] KLK1 enzyme is activated by incubating 0.5 mg/ml KLK1 combined with 0.1 μg/ml thermolysin in a buffer of 0.05 M Tres (pH 7.5), 0.15 M NaCl, and 0.01 M CaCl2 for one hour at 37° C. The thermolysin is then deactivated by the addition of equal parts 20 mM 1, 10 phenanthroline solution in water. The activated KLK1 solution is then added to CHES buffer (0.05 M CHES, 0.15 M NaCl, 0.01 M CaCl2, pH 10) for a final concentration of 5 nM along with the test article and incubated for 10 minutes. […] Substrate activation is read 10 minutes after substrate addition using a Synergy H1 multifunction plate reader (Biotek) programmed with a 360 nm excitation wavelength and a 480 nm emission wavelength. Inhibitor response was established by adding test compound as ten point, three-fold serial dilutions, as known in the art. The IC50 was calculated by plotting the percent (%) inhibition against compound concentration and fitting the data to a constrained four parameter sigmoidal curve, as known in the art.

Data set [3] deals with Human KLKB1 (Homo sapiens (Human), UniProt P03952). Briefly: KLKB1 kallikrein activity inhibition assay (chromogenic substrate S-2302). The data set is classed as biochemical. In outline:
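Enzyme at a final 3 nM was assayed in 0.05 M Tris pH 7.4, 0.01 M NaCl and 0.2% PEG-8000 at room temperature, with compounds as ten-point threefold dilutions.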

The nature of data set [4]: Pharmacokinetics in mice (i.v. and p.o.). The data set is classed as in vivo, male CD-1 mice. To be noted: male, CD-1, mouse, in vivo. Here is the method: Each compound is administered intravenously (i.v.) as a single dose via tail vein or orally (p.o.) as a single dose via gastric gavage to male CD-1 mice of nominal weights between 20 g and 26 g. Nominal doses are 1 mg/kg and 5 mg/kg for i.v. and p.o., respectively. In some examples (dose type A), both p.o. and i.v. doses are prepared by dissolving the test compound in 5% dimethyl acetamide and diluted in tetraethylene glycol for a final concentration of 0.25 mg/mL. In other examples (dose type B), i.v. doses are prepared by dissolving test compounds in 20% dimethyl acetamide, 40% polyethylene glycol 300 and 40% phosphate buffered saline, and p.o. doses are prepared by dissolving test compounds in carboxymethyl cellulose suspension (1% by weight) in water and 2.5% dimethyl acetamide.
Animals are housed in standard holding cages with food and water available ad libitum except for animals used for p.o. dosing which are fasted overnight prior to dosing. Samples are taken in triplicate via cardiac puncture at times prior to dosing and at 0.083 (i.v. only), 0.25, 0.5, 1, 2, 4, 8, and 24 hours after administration. Plasma is obtained by centrifuge and stored frozen until analyzed by LC-MS/MS using a Shimadzu VP System HPLC coupled to a Applied Biosystems MDS SCIEX API 3000 triple quadrapole MS. Assay results are calibrated using reference samples prepared in a range between 1.5 and 5000 ng/mL.
Pharmacokinetic parameters are calculated from mean concentration values using a non-compartmental analysis as described in the following and as apparent to those of ordinary skill in the art. Half-lives (t1/2) and elimination rate constants (λ) are determined by log linear regression using equal weighting on the last three finite sample time points. Concentration at time zero (C0) for the i.v. data is established by the extrapolation of log linear regression using equal weighting on the first three sample time points. Area under the curve (AUC) values are calculated using linear trapezoidal integration. Systemic clearance (CL) is calculated as the ratio of dosage and AUC. […] Percent oral bioavailability (% F) is determined from the ratio of i.v. and p.o. AUC values weighted by dosage.

Data set [5] deals with malignant breast tumors. The conditions noted are these: treated mice, cited from earlier work.

Recombinant human tissue kallikrein (KLK1), sequence (P06870 25-262): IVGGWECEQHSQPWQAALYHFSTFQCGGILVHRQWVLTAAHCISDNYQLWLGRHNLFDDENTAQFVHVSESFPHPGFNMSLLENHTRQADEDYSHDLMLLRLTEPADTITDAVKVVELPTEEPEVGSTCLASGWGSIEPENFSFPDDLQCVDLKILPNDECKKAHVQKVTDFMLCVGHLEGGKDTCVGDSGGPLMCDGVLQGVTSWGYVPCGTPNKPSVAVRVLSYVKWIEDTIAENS
Human KLKB1, sequence (P03952 391-638 limits assumed): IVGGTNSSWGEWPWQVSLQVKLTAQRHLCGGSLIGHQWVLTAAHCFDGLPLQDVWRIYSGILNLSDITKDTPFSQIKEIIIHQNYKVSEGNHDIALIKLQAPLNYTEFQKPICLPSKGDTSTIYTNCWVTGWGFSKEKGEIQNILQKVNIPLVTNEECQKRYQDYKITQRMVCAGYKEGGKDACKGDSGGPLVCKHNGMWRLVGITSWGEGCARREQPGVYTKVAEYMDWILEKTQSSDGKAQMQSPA
Human KLKB1, sequence (P03952 20-390 partner limits assumed): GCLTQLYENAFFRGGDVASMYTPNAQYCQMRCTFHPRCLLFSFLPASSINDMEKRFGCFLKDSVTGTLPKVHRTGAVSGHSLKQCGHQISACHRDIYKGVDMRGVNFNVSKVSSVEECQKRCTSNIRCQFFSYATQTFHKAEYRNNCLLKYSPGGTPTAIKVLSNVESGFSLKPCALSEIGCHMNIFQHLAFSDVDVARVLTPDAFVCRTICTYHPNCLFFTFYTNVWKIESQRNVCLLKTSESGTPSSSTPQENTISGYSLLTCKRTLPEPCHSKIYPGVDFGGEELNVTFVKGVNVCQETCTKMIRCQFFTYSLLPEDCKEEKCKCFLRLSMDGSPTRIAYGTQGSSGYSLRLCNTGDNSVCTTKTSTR

Take `O=C(c1ccoc1)n1nc(-c2ccc[nH]c2=O)cc1NCc1ccc(Cl)s1` [Cmpd 4, 3-(5-[(5-chlorothiophen-2-yl)methyl]amino-1-[(furan-3-yl)carbonyl]-1H-pyrazol-3-yl)-1,2-dihydropyridin-2-one]: the Papp at 4 h in data set [1] came out at 2.5 ×10⁻⁶ cm/s. In addition, the IC50 in data set [2] (Table B) fell in the range of 10 to 100 µM. Moreover, in data set [3] (Table B), the IC50 lay within 1000 to 10000 nM. In data set [4] (iv, 1 mg/kg), this compound gave an AUC of 100 ng·h/mL, a C0 of 300 ng/mL, a Vd of 10 L/kg and a clearance of 167 mL/min/kg. The compound further had a half-life in data set [4] (iv, 1 mg/kg) of 60 min. In data set [4] (po, 5 mg/kg), this compound had an AUC of 300 ng·h/mL, a bioavailability of 60% and a half-life of 360 min.
With `COc1ccccc1C(=O)n1nc(-c2ccccn2)nc1NCc1ccc(Cl)s1` [Cmpd 22], the Papp at 4 h in data set [1] came out at 5.7 ×10⁻⁶ cm/s. The IC50 in data set [2] (Table C) is 10 to 100 µM; in data set [3] (Table C) it was < 100 nM.
Consider `CCCCCCOC(=O)N=C(N)c1ccc(NCc2nc3cc(C(=O)N(CCC(=O)OCC)c4ccccn4)ccc3n2C)cc1` [dabigatran etexilate], for which the “reduction in tumor volume” value in data set [5] (at 4 weeks) is on record as 50%. Also, the “reduced tumor cells in the blood and liver micrometastases” value in data set [5] is on record as 50-60%.
